Reference: ChEMBL document CHEMBL5537122, “Design, synthesis, and biological evaluation of 4-(2-fluorophenoxy)-7-methoxyquinazoline derivatives as dual EGFR/c-Met inhibitors for the treatment of NSCLC” (Eur J Med Chem, 2024)

How the values were obtained:
[1] = molecular target: Epidermal growth factor receptor (Homo sapiens, UniProt P00533); test: biochemical
Description: Inhibition of N-terminal GST tagged human recombinant EGFR (695 to end residues) expressed in baculovirus infected Sf9 cells using Poly (4:1 Glu, Tyr) as substrate incubated for 60 mins in presence of ATP by ADP-Glo luminescent assay

[2] = molecular target: Epidermal growth factor receptor (Homo sapiens, UniProt P00533, L858R); test: biochemical
A549 = test: Antiproliferative activity against human A549 cells overexpressing c-Met and EGFR assessed as reduction in cell viability incubated for 72 hrs by MTT assay; assay type: functional, cell-based; conditions: A549, 72 h
[3] = molecular target: Hepatocyte growth factor receptor (Homo sapiens, UniProt P08581); test: biochemical
Hepatocyte growth factor receptor, sequence (P08581 whole entry): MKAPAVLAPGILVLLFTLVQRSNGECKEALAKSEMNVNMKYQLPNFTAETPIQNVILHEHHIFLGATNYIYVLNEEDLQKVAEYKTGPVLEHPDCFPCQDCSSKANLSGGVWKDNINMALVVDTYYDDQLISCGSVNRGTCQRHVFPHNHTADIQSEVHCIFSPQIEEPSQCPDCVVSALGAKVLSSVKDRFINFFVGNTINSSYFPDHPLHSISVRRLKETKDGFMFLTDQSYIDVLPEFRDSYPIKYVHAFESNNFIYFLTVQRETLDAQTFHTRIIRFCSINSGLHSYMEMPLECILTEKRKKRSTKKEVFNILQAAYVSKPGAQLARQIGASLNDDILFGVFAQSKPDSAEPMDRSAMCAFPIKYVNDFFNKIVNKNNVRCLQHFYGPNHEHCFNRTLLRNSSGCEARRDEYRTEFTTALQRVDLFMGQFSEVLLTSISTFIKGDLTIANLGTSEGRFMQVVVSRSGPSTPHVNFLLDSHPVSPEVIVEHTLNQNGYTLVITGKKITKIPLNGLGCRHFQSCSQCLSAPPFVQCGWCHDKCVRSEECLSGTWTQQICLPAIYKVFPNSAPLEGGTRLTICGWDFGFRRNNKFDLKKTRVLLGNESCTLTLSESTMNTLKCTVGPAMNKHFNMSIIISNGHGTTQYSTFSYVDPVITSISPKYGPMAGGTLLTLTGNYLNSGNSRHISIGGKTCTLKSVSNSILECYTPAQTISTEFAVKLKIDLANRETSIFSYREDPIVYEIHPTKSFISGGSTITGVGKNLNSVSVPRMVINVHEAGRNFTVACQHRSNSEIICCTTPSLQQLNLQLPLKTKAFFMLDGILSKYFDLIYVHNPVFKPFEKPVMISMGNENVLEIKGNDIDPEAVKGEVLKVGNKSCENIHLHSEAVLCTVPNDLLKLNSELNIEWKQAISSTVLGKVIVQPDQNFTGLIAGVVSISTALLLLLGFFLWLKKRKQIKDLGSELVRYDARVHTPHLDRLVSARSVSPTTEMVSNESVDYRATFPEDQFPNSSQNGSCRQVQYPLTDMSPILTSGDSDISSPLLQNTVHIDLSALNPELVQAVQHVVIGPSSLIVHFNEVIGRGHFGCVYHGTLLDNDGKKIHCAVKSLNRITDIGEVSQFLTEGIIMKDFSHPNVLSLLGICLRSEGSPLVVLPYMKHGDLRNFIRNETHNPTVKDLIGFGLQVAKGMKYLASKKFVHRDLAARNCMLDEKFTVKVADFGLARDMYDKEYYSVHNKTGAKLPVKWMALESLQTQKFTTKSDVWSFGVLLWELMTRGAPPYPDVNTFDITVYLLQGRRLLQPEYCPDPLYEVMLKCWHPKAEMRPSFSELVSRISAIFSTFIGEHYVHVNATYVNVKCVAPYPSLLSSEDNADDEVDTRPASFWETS
Description: Inhibition of N-terminal GST tagged human recombinant c-Met (956 to end residues) expressed in baculovirus infected Sf9 cells using Poly (4:1 Glu, Tyr) as substrate incubated for 60 mins in presence of ATP by ADP-Glo luminescent assay

NCI-H1975 = test: Antiproliferative activity against human NCI-H1975 cells overexpressing c-Met and EGFR assessed as reduction in cell viability incubated for 72 hrs by MTT assay; assay type: functional, cell-based; conditions: NCI-H1975, 72 h
PC-9 = test: Antiproliferative activity against human PC-9 cells overexpressing c-Met and EGFR assessed as reduction in cell viability incubated for 72 hrs by MTT assay; assay type: functional, cell-based; conditions: PC-9, 72 h

Epidermal growth factor receptor (Homo sapiens, UniProt P00533, L858R), sequence (P00533 25-1210 L858R limits assumed): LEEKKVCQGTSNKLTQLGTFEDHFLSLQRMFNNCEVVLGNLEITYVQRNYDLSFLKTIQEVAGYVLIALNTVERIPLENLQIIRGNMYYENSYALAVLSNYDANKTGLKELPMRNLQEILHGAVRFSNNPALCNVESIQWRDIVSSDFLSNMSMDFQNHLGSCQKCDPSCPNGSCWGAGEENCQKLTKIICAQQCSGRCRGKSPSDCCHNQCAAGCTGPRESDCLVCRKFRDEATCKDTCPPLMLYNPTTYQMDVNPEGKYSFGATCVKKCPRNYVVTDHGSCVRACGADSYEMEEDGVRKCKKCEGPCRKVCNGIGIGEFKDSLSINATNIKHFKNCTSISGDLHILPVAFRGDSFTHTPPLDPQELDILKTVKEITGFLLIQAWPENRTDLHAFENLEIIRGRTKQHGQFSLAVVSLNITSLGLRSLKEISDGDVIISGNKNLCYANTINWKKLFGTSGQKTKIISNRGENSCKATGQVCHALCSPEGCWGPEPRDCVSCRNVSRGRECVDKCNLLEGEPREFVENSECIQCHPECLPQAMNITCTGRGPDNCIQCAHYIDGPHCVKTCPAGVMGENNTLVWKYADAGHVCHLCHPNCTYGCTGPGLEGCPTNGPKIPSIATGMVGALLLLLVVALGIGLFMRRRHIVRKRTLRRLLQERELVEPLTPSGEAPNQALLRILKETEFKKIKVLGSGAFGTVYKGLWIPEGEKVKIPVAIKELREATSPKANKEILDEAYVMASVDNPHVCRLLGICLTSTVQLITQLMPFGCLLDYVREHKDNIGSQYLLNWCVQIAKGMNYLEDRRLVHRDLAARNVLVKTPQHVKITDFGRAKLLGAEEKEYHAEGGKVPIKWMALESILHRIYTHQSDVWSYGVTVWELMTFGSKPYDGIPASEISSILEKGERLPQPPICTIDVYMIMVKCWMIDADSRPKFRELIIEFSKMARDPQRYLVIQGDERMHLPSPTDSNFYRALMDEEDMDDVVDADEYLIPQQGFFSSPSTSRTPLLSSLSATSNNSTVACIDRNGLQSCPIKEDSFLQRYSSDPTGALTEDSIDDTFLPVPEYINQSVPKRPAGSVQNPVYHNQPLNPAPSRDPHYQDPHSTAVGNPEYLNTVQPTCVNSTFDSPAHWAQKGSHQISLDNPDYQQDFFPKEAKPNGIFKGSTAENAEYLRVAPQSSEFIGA
Epidermal growth factor receptor (Homo sapiens, UniProt P00533), sequence (P00533 whole entry): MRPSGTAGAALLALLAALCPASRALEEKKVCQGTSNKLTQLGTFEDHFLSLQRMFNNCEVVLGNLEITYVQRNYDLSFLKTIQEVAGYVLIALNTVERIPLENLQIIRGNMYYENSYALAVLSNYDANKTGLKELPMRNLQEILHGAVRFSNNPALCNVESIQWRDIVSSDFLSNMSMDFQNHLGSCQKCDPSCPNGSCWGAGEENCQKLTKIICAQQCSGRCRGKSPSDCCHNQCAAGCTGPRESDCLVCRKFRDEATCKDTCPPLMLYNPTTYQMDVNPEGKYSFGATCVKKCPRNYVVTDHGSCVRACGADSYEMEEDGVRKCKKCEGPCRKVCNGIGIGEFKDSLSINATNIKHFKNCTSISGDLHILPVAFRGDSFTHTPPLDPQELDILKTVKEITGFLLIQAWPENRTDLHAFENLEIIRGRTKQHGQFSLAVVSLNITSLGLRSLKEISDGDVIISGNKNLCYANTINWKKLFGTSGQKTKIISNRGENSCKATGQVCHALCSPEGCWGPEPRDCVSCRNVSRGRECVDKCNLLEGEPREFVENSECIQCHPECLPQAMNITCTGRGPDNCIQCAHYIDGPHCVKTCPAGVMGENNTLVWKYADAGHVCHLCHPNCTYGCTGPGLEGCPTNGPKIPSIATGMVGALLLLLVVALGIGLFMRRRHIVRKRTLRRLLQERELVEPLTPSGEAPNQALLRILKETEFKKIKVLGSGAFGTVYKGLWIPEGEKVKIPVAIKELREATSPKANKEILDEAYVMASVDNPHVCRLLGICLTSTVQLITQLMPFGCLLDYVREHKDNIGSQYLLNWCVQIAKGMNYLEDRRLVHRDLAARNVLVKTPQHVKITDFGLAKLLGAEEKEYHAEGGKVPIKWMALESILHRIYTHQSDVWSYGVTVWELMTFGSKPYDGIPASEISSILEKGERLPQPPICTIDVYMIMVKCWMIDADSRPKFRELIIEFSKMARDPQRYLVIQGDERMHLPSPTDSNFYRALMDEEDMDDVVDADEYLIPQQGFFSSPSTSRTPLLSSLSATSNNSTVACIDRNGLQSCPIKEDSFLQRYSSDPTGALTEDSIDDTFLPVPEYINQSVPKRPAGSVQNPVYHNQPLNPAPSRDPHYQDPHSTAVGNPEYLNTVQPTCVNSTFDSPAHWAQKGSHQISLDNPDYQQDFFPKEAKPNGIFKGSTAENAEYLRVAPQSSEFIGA

Row | Structure (SMILES) | IC50 [1] | IC50 [2] | IC50 (A549) | IC50 [3] | IC50 (NCI-H1975) | IC50 (PC-9)
1 | COc1cc2ncnc(Oc3ccc(NC(=O)CCCc4ccc(C)cc4)cc3F)c2cc1NC(=O)CCC(C)C | > 10 µM | > 10 µM | > 50 µM | 3.07 µM | 27.5 µM | > 50 µM
2 | C/C=C/C(=O)Nc1cc2c(Oc3ccc(NC(=O)CCCc4ccc(C)cc4)cc3F)ncnc2cc1OC | 7.65 µM | > 10 µM | 4.56 µM | 0.531 µM | 9.49 µM | 8.4 µM
3 | COc1cc2ncnc(Oc3ccc(NC(=O)CCCc4ccc(F)cc4)cc3F)c2cc1NC(=O)CCC(C)C | > 10 µM | > 10 µM | > 50 µM | 0.712 µM | 12 µM | > 50 µM
4 | C/C=C/C(=O)Nc1cc2c(Oc3ccc(NC(=O)CCCc4ccc(F)cc4)cc3F)ncnc2cc1OC | 4.54 µM | 5.72 µM | > 50 µM | 0.67 µM | 4.78 µM | 2.31 µM
5 | COc1cc2ncnc(Oc3ccc(NC(=O)CCCc4ccsc4)cc3F)c2cc1NC(=O)CCC(C)C | > 10 µM | > 10 µM | 13 µM | 5.55 µM | > 50 µM | > 50 µM
6 | CCC(=O)Nc1cc2c(Oc3ccc(NC(=O)NCCc4ccc(OC)c(OC)c4)cc3F)ncnc2cc1OC | > 10 µM | > 10 µM | > 50 µM | 0.0905 µM | > 50 µM | > 50 µM
7 | CCC(=O)Nc1cc2c(Oc3ccc(NC(=O)n4c(=O)c(-c5ccccc5)c(C)n4C)cc3F)cccc2cc1OC | > 10 µM | > 10 µM | 8.42 µM | 0.00102 µM | 22.2 µM | 1.06 µM
8 | C=CC(=O)Nc1cc2c(Oc3ccc(NC(=O)CCCc4ccc(C)cc4)cc3F)ncnc2cc1OC | 1.79 µM | 1.47 µM | 5.21 µM | 0.394 µM | 0.43 µM | 7.67 µM
9 | CCCC(=O)Nc1cc2c(Oc3ccc(NC(=O)CCCc4ccc(OC)cc4)cc3F)ncnc2cc1OC | 7.64 µM | 8.96 µM | 7.74 µM | 0.607 µM | 16.2 µM | > 50 µM
10 | C/C=C/C(=O)Nc1cc2c(Oc3ccc(NC(=O)CCCc4ccsc4)cc3F)ncnc2cc1OC | > 10 µM | > 10 µM | 21.7 µM | 1.39 µM | > 50 µM | 1.63 µM
11 | CCCC(=O)Nc1cc2c(Oc3ccc(NC(=O)CCCc4ccccc4)cc3F)ncnc2cc1OC | 2.65 µM | 4.65 µM | 7.66 µM | 0.316 µM | 4.96 µM | 9.31 µM
12 | CCCC(=O)Nc1cc2c(Oc3ccc(NC(=O)c4sc(-c5ccccc5)nc4C)cc3F)cccc2cc1OC | > 10 µM | > 10 µM | 8.15 µM | 0.0719 µM | 5.1 µM | > 50 µM
13 | C=CC(=O)Nc1cc2c(Oc3ccc(NC(=O)CCCc4ccsc4)cc3F)ncnc2cc1OC | > 10 µM | > 10 µM | 5.14 µM | 0.693 µM | 4.72 µM | 0.99 µM
14 | CCCC(=O)Nc1cc2c(Oc3ccc(NC(=O)CCCc4ccc(C)cc4)cc3F)ncnc2cc1OC | > 10 µM | > 10 µM | 14 µM | 0.678 µM | 14.2 µM | 28.9 µM
15 | C=CC(=O)Nc1cc2c(Oc3ccc(NC(=O)c4c(-c5c(Cl)cccc5Cl)noc4C)cc3F)cccc2cc1OC | – | – | 4.57 µM | 1.77 µM | 4.9 µM | 6.73 µM
16 | C=CC(=O)Nc1cc2c(Oc3ccc(NC(=O)NCCc4csc(Br)c4)cc3F)ncnc2cc1OC | 2.07 µM | 1.51 µM | 4.08 µM | 0.253 µM | 6.07 µM | 3.64 µM

Row | Structure (SMILES) | IC50 [1] | IC50 [2] | IC50 (A549) | IC50 [3] | IC50 (NCI-H1975) | IC50 (PC-9)
17 | C/C=C/C(=O)Nc1cc2c(Oc3ccc(NC(=O)c4c(-c5c(Cl)cccc5Cl)noc4C)cc3F)cccc2cc1OC | > 10 µM | > 10 µM | 19.5 µM | 3.38 µM | 17.2 µM | 6.12 µM
18 | CCC(=O)Nc1cc2c(Oc3ccc(NC(=O)CCCc4ccsc4)cc3F)ncnc2cc1OC | > 10 µM | > 10 µM | 12.4 µM | 0.579 µM | > 50 µM | 4.03 µM
19 | C/C=C/C(=O)Nc1cc2c(Oc3ccc(NC(=O)n4c(=O)c(-c5ccccc5)c(C)n4C)cc3F)cccc2cc1OC | 4.83 µM | > 10 µM | 2.7 µM | 0.015 µM | 9.42 µM | 8.88 µM
20 | C=CC(=O)Nc1cc2c(Oc3ccc(NC(=O)CCCc4ccc(F)cc4)cc3F)ncnc2cc1OC | 0.782 µM | 1.07 µM | 2.07 µM | 0.355 µM | 8.21 µM | 4.56 µM
21 | C=CC(=O)Nc1cc2c(Oc3ccc(NC(=O)CCCc4ccc(OC)cc4)cc3F)ncnc2cc1OC | 0.567 µM | 0.693 µM | 3.12 µM | 0.348 µM | 2.1 µM | 19.4 µM
22 | CCCC(=O)Nc1cc2c(Oc3ccc(NC(=O)CCCc4ccsc4)cc3F)ncnc2cc1OC | > 10 µM | > 10 µM | > 50 µM | 0.959 µM | > 50 µM | 13.8 µM
23 | C/C=C/C(=O)Nc1cc2c(Oc3ccc(NC(=O)CCCc4ccc(OC)cc4)cc3F)ncnc2cc1OC | > 10 µM | > 10 µM | 6.43 µM | 0.493 µM | > 50 µM | 8.17 µM
24 | CCCCC(=O)Nc1cc2c(Oc3ccc(NC(=O)CCCc4ccc(F)cc4)cc3F)ncnc2cc1OC | > 10 µM | > 10 µM | > 50 µM | 0.533 µM | 41.2 µM | > 50 µM
25 | C=CC(=O)Nc1cc2c(Oc3ccc(NC(=O)CCCc4ccccc4)cc3F)ncnc2cc1OC | 0.387 µM | 0.497 µM | 2.25 µM | 0.658 µM | 1.34 µM | 2.46 µM
26 | CCCCC(=O)Nc1cc2c(Oc3ccc(NC(=O)CCCc4ccccc4)cc3F)ncnc2cc1OC | > 10 µM | > 10 µM | 7.15 µM | 0.605 µM | 8.39 µM | 8.84 µM
27 | CCCCC(=O)Nc1cc2c(Oc3ccc(NC(=O)CCCc4ccc(OC)cc4)cc3F)ncnc2cc1OC | > 10 µM | > 10 µM | 29.8 µM | 0.824 µM | 43.4 µM | > 50 µM
28 | C=CC(=O)Nc1cc2c(Oc3ccc(NC(=O)NCCc4ccc(OC)c(OC)c4)cc3F)ncnc2cc1OC | 2.35 µM | 4.18 µM | 6.7 µM | 0.114 µM | 11.4 µM | 2.48 µM
29 | C=CC(=O)Nc1cc2c(Oc3ccc(NC(=O)NCCC4CCCCC4)cc3F)ncnc2cc1OC | 1.28 µM | 1.39 µM | 1.57 µM | 0.088 µM | 4.26 µM | 1.68 µM
30 | C/C=C/C(=O)Nc1cc2c(Oc3ccc(NC(=O)c4sc(-c5ccccc5)nc4C)cc3F)cccc2cc1OC | 2.32 µM | > 10 µM | 44.2 µM | 0.0964 µM | > 50 µM | > 50 µM
31 | CCC(=O)Nc1cc2c(Oc3ccc(NC(=O)NCCc4csc(Br)c4)cc3F)ncnc2cc1OC | > 10 µM | > 10 µM | 8.42 µM | 0.247 µM | 11.1 µM | 4.97 µM
